Strand notation (5' to 3'): a small letter for the sugar, then the base; units joined by * are phosphorothioate-linked, units joined directly phosphodiester-linked; [ ] holds rarer units or linkages, { } end groups; capitals alone tell only the bases. k = constrained ethyl (cEt); [5mC] = 5-methylcytosine; d = 2'-deoxy (DNA)
Tested on: Yap1 mRNA
Experiment: Antisense inhibition of human Yap1 in A-431 cells by cEt gapmers, single dose (Example 2, RTS4814)
Format: cell-based
Summary of the method: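 Each 16-nucleoside gapmer (ten-deoxy gap, three-cEt wings) is tested once at 2,000 nM in A-431 cells by free uptake. Yap1 mRNA after about 48 hours is measured by quantitative RT-PCR and expressed relative to untreated control.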

[1] = Table 33, Yap1 mRNA, percent of untreated control, 3-10-3 cEt gapmers targeting SEQ ID NO.: 1, and 2
[2] = Table 6, A-431 cells, 5,000 cells per well, free uptake, 2,000 nM modified oligonucleotide, approx. 48 hours, RTS4814, normalized to RIBOGREEN, Yap1 mRNA relative to untreated control cells
[3] = Table 20, Yap1 mRNA, percent of untreated control, 3-10-3 cEt gapmers targeting SEQ ID NO.: 1 and 2
[4] = Table 22, Yap1 mRNA as percent of untreated control, 3-10-3 cEt gapmers, single dose
[5] = Yap1 mRNA as percent of untreated control, A-431 cells, 3-10-3 cEt gapmers targeting SEQ ID NO.: 1, and 2, Table 31
[6] = Yap1 mRNA as percent of untreated control, A-431 cells, 3-10-3 cEt gapmers targeting SEQ ID NO.: 1, and 2, Table 30
[7] = Table 21, Yap1 mRNA, percent of untreated control, 3-10-3 cEt gapmers targeting SEQ ID NO.: 1 and 2

1075091 (kA*kA*kA*d[5mC]*dA*dA*d[5mC]*dG*dA*dA*dT*dG*dA*kT*kT*kG; antisense) [compound 1075091]
YAP1 (% UTC) [1]: 65 % UTC

716516 (antisense kA*kA*k[5mC]*dT*dT*dT*d[5mC]*d[5mC]*d[5mC]*dA*d[5mC]*d[5mC]*d[5mC]*kT*k[5mC]*k[5mC]) [Compound 716516]
YAP1 (% UTC) [2]: 84 % UTC

1076486 (antisense kG*kA*kA*dA*d[5mC]*dG*dA*dA*dA*d[5mC]*dG*dG*dG*kA*kA*kA) [Compound 1076486]
YAP1 (% UTC) [3]: 5 % UTC

716568 (kG*kA*kT*dT*dT*dT*dT*dT*d[5mC]*dT*dG*dA*dG*kT*kT*k[5mC]; antisense) [Compound 716568]
YAP1 (% UTC) (A-431 cells, 5,000 cells per well, free uptake, 2,000 nM modified oligonucleotide, approx. 48 hours, RTS4814, normalized to RIBOGREEN, Table 4, asterisk (*) = targets amplicon region of primer probe set): 72 % UTC

1076424 (kA*k[5mC]*kT*dT*dA*dA*d[5mC]*d[5mC]*dT*dG*dA*d[5mC]*dA*kG*k[5mC]*kT; antisense) [Compound 1076424]
YAP1 (% UTC) [4]: 76 % UTC

1075377 (antisense k[5mC]*kT*kA*dG*dA*dA*dA*dG*dG*dT*dT*dG*dG*k[5mC]*k[5mC]*k[5mC]) [compound 1075377]
YAP1 (% UTC) [5]: 108 % UTC

1074502 (kA*kA*k[5mC]*dT*dA*d[5mC]*dA*dA*dT*dA*dA*d[5mC]*d[5mC]*kA*kT*k[5mC]; antisense) [Compound 1074502]
YAP1 (% UTC) [3]: 31 % UTC

1075761 (kG*kG*kA*dG*dA*dA*dA*dA*dA*d[5mC]*dT*dA*d[5mC]*kG*kG*kA; antisense) [compound 1075761]
YAP1 (% UTC) [5]: 13 % UTC

1074768 (k[5mC]*kT*kT*dA*dT*d[5mC]*d[5mC]*d[5mC]*dA*dA*dT*dG*d[5mC]*kT*kA*k[5mC]; antisense) [compound 1074768]
YAP1 (% UTC) [6]: 11 % UTC

1074384 (kT*kT*k[5mC]*dA*dA*dG*dG*dT*dA*dG*dT*d[5mC]*dT*kG*kG*kG; antisense) [compound 1074384]
YAP1 (% UTC) [6]: 35 % UTC

716563 (kT*kG*kA*dA*dG*d[5mC]*dA*dA*dG*dT*dT*d[5mC]*dT*k[5mC]*kA*kA; antisense) [Compound 716563]
YAP1 (% UTC) (Table 5, A-431 cells, 5,000 cells per well, free uptake, 2,000 nM modified oligonucleotide, approx. 48 hours, RTS4814, normalized to RIBOGREEN, Yap1 mRNA relative to untreated control cells): 126 % UTC

1076425 (k[5mC]*kG*kG*dG*dA*dA*dA*dA*dT*dT*d[5mC]*dT*dG*kG*kA*kG; antisense) [Compound 1076425]
YAP1 (% UTC) (Table 23, Yap1 mRNA as percent of untreated control, 3-10-3 cEt gapmers, single dose): 32 % UTC

1075315 (antisense k[5mC]*kA*kT*dA*dA*d[5mC]*dT*dT*dG*dA*dT*dG*dA*k[5mC]*kT*k[5mC]) [compound 1075315]
YAP1 (% UTC) [1]: 27 % UTC

1075111 (antisense kT*kA*kG*dG*dA*dA*dT*dA*dT*dG*dG*dG*dT*kA*kG*kT) [Compound 1075111]
YAP1 (% UTC) [7]: 5 % UTC

1074320 (antisense kG*kG*k[5mC]*dT*dA*dA*d[5mC]*dT*d[5mC]*d[5mC]*dT*dG*dA*k[5mC]*kA*kT) [compound 1074320]
YAP1 (% UTC) [6]: 80 % UTC

1076484 (antisense kG*kA*kA*dA*d[5mC]*dG*dG*dG*dA*dA*dA*dT*d[5mC]*kA*kT*kA) [Compound 1076484]
YAP1 (% UTC) (Table 18, A-431 cells, 5,000 cells per well, free uptake, 2,000 nM modified oligonucleotide, approx. 48 hours, RTS4814, normalized to RIBOGREEN, Yap1 mRNA as percent of untreated control): 10 % UTC

1074152 (antisense k[5mC]*kG*kG*dG*d[5mC]*d[5mC]*dG*dA*dG*dG*dT*dG*dG*kA*kG*kA) [Compound 1074152]
YAP1 (% UTC) [4]: 77 % UTC

1075623 (k[5mC]*kA*kT*dA*dA*dT*d[5mC]*dA*dA*dA*dA*dT*dG*kG*kG*k[5mC]; antisense) [Compound 1075623]
YAP1 (% UTC) [7]: 48 % UTC

1075216 (kT*kA*kT*dT*dT*dT*dA*d[5mC]*dA*d[5mC]*dG*dA*dA*k[5mC]*kT*kA; antisense) [compound 1075216]
YAP1 (% UTC) [6]: 55 % UTC

716414 (kG*kT*kT*d[5mC]*dA*dT*dT*d[5mC]*d[5mC]*dA*dT*d[5mC]*dT*k[5mC]*k[5mC]*kT; antisense) [Compound 716414]
YAP1 (% UTC) [2]: 59 % UTC

1074853 (antisense k[5mC]*kA*kA*dT*dT*dG*dT*dT*dA*dT*dG*dA*dT*kA*kG*kG) [Compound 1074853]
YAP1 (% UTC) (Table 19, A-431 cells, 5,000 cells per well, free uptake, 2,000 nM modified oligonucleotide, approx. 48 hours, RTS4814, normalized to RIBOGREEN, Yap1 mRNA as percent of untreated control): 15 % UTC

1075729 (kT*kA*kT*dT*dT*dA*dA*dA*dA*dA*dT*dA*dG*k[5mC]*kG*k[5mC]; antisense) [compound 1075729]
YAP1 (% UTC) [5]: 88 % UTC

— patent publication US11214803B2, “Modulators of YAP1 expression” (Ionis Pharmaceuticals, Inc., priority 2019, dated 2022)
